Experimental data from ChEMBL document CHEMBL3997817, “Filamenting temperature-sensitive mutant Z inhibitors from Glycyrrhiza glabra and their inhibitory mode of action” (Bioorg Med Chem Lett, 2017).
≈ marks a conversion by molar mass, not a printed value.

Assays:
Bacillus subtilis [1] = experiment: Antibacterial activity against Bacillus subtilis NBRC 3134 after overnight incubation by MTT assay; type: functional
Bacillus subtilis [2] = experiment: Inhibition of Bacillus subtilis N-terminal hexahistidine-tagged FtsZ GTPase activity expressed in Escherichia coli BL21 (DE3) assessed as residual activity at 200 uM after 1 hr relative to control
Escherichia coli [3] = experiment: Inhibition of Escherichia coli N-terminal hexahistidine-tagged FtsZ GTPase activity expressed in Escherichia coli BL21 (DE3) assessed as residual activity at 100 uM after 1 hr relative to control
Escherichia coli [4] = experiment: Inhibition of Escherichia coli N-terminal hexahistidine-tagged FtsZ GTPase activity expressed in Escherichia coli BL21 (DE3) assessed as residual activity at 200 uM after 1 hr relative to control
Bacillus subtilis [5] = experiment: Inhibition of Bacillus subtilis N-terminal hexahistidine-tagged FtsZ GTPase activity expressed in Escherichia coli BL21 (DE3) assessed as residual activity at 100 uM after 1 hr relative to control
Escherichia coli [6] = experiment: Inhibition of Escherichia coli N-terminal hexahistidine-tagged FtsZ GTPase activity expressed in Escherichia coli BL21 (DE3) assessed as residual activity at 20 uM after 1 hr relative to control
Bacillus subtilis [7] = experiment: Inhibition of Bacillus subtilis N-terminal hexahistidine-tagged FtsZ GTPase activity expressed in Escherichia coli BL21 (DE3) assessed as residual activity at 20 uM after 1 hr relative to control
Bacillus subtilis [8] = experiment: Inhibition of Bacillus subtilis N-terminal hexahistidine-tagged FtsZ GTPase activity expressed in Escherichia coli BL21 (DE3) at 100 uM after 1 hr relative to control
Bacillus subtilis [9] = experiment: Inhibition of Bacillus subtilis N-terminal hexahistidine-tagged FtsZ V307R mutant GTPase activity expressed in Escherichia coli BL21 (DE3) after 1 hr relative to wild type protein; details: concentration not given here
[10] = Uncompetitive inhibition of Bacillus subtilis N-terminal hexahistidine-tagged FtsZ GTPase activity expressed in Escherichia coli BL21 (DE3) after 1 hr by Lineweaver-Burk plot analysis

Row | MIC (Bacillus subtilis [1]) [µM] | Activity (Bacillus subtilis [2]) [%] | Activity (Escherichia coli [3]) [%] | Activity (Escherichia coli [4]) [%] | Activity (Bacillus subtilis [5]) [%] | Activity (Escherichia coli [6]) [%] | Activity (Bacillus subtilis [7]) [%] | fold change (FC) (Bacillus subtilis [8]) | inhibition (Bacillus subtilis [9]) [%] | Compound | Ki [10] [µM]
1 | – | 35.3 | 73.5 | – | 55.5 | 99.4 | 98.1 | 0.8 to 7.7 | – | COc1c(CC=C(C)C)c(O)cc2oc(-c3ccc(O)cc3O)cc12 | –
2 | 5 (≈ 1.77 µg/mL) | 10.1 | 63.2 | – | 10.1 | 88.4 | 37.4 | 0.8 to 7.7 | 60 | COc1cc2oc(-c3ccc(O)cc3O)cc2c(OC)c1CC=C(C)C | 30.9
3 | – | 90.2 | 105 | 106 | 96.8 | 101 | 97.4 | 0.8 to 7.7 | – | COc1c(CC=C(C)C)c(O)cc(O)c1-c1coc2cc(O)ccc2c1=O | –
4 | 40 (≈ 15.3 µg/mL) | 17 | 87.8 | 88.6 | 17.5 | 103 | 74.4 | 0.8 to 7.7 | 60 | COc1cc2oc(=O)c(-c3ccc(O)cc3O)cc2c(OC)c1CC=C(C)C [GLYCYRIN] | 42.6

Continued, compound first:

Row | Compound | MIC (Bacillus subtilis [1]) [µM] | Activity (Bacillus subtilis [2]) [%] | Activity (Escherichia coli [3]) [%] | Activity (Escherichia coli [4]) [%] | Activity (Bacillus subtilis [5]) [%] | Activity (Escherichia coli [6]) [%] | Activity (Bacillus subtilis [7]) [%] | fold change (FC) (Bacillus subtilis [8]) | inhibition (Bacillus subtilis [9]) [%] | Ki [10] [µM]
5 | NC[C@H]1O[C@H](O[C@H]2[C@H](O)[C@@H](O[C@H]3O[C@H](CO)[C@@H](O)[C@H](N)[C@H]3O)[C@H](N)C[C@@H]2N)[C@H](O)[C@@H](O)[C@@H]1O [KANAMYCIN] | < 20 | – | – | – | – | – | – | – | – | –
6 | CCN(CC)CCNc1nc(/C=C/c2ccc(Cl)cc2)nc2cc3ccccc3cc12 | – | 8 | 12 | 7.7 | 12.6 | 57.7 | 75.3 | – | – | –
7 | CC(C)=CCc1cc(-c2coc3cc(O)cc(O)c3c2=O)cc(O)c1O | – | 63.4 | 98.3 | 93.1 | 85.1 | 97.7 | 89.1 | 0.8 to 7.7 | – | –
8 | CC(C)=CCc1cc(-c2oc3cc(O)cc(O)c3c(=O)c2O)ccc1O [ISOLICOFLAVONOL] | 40 (≈ 14.2 µg/mL) | 7.7 | 61.2 | – | 10.1 | 95.2 | 48.5 | 0.8 to 7.7 | 60 | 37.7
9 | COc1c(CC=C(C)C)c(O)cc2oc(=O)c(-c3ccc(O)cc3O)cc12 | – | 30.4 | 85.6 | 67.3 | 52.3 | 95.9 | 87.8 | 0.8 to 7.7 | – | –
